Laboratory results reported in US20220046917A1, “ATTRACTANT BLEND COMPOSITIONS, DEVICES AND METHODS FOR ATTRACTING FEMALE MICE” (priority 2020, published 2022).

What was measured:
[1] = test system: wild mice; experiment: Experiment 3: field experiment, captures in paired baited trap boxes; assay type: in vivo, Mus musculus; settings: Exp. 3, paired trap boxes
Experimental: (§1) Each replicate (n=49) consisted of paired trap boxes as depicted in FIG. 4. The paired trap boxes, PROTECTA® Mouse, Bell Laboratories Inc. Madison, Wis.
(§2) Twice every week, paired trap boxes were checked, and food lures and pheromone lures replaced. Whenever a mouse had been captured, its sex and age (juvenile or adult based on body size and genitalia development) were recorded, and a new trap box and snap trap were deployed. […] The position of the treatment and the control trap within paired trap boxes was re-randomized after each capture.
(§3) Experiments 3 and 4 evaluated the respective abilities of the CPCs and a blend of brevicomin and thiazole to enhance the attractiveness of testosterone. […] Specifically, in Experiment 3, the treatment box in each pair was baited with brevicomin (1 mg) and thiazole (1 mg) formulated in mineral oil (10 ml) and contained in a 20-ml glass scintillation vial. […] To minimize any potential sources of error, treatment and control trap boxes in each experiment were fitted with the same glassware and volume of mineral oil.

[2] = test system: wild mice; experiment: Experiment 4: field experiment, captures in paired baited trap boxes; assay type: in vivo, Mus musculus; settings: Exp. 4, paired trap boxes
Experimental: as §1, §2, §3

In the case of `C[C@]12CC[C@H]3[C@@H](CCC4=CC(=O)CC[C@@]43C)[C@@H]1CC[C@@H]2O` [testosterone], the “adult female mice captured” value [1] is reported as “one”, the adult females captured [2] is reported as “four” and the adult males captured [2] is reported as “seven”. The juvenile male captured [2] was “one”.
